Test results published in patent publication US20080009546A1 (Chevron U.S.A. Inc., priority 2005, published 2008).
Read-outs that look alike come from different tables or passages of the source.

Legend:
NMDA receptor = test: Whole-cell voltage-clamp recordings of NMDA evoked currents in hypocretin neurons (hypothalamic slices); format: cell-based, mouse; details: for inhibition of the peak amplitude of NMDA evoked currents: bath application, -60 mV, mean±SEM
C57/BL6 male mice [1] = details: for # of deaths / # of extensions: 6 mice
C57/BL6 male mice [2] = test: Rotarod test (balance and coordination, side effects)
Description: The side effects of the compounds was primarily evaluated using the rotarod test, which mainly assesses the balancing and coordination of mice. The comparisons were made on fall time of the mice between the first measure (pre-treatment) and second measure taken 20 min after the drug/vehicle injection in the same group (paired t-test). […] Comparisons of the rotatod fall times after drug/vehicle dosing were made between drug treatment and control groups (unpaired t-test).

[3] = system: primary neurons from rat cerebral cortex; test: NMDA-induced LDH release assay in primary cortical neurons (neuroprotection); format: cell-based; details: Rattus norvegicus, Primary neuron; two experiments; 300 uM NMDA + 50 μM glycine 15 minutes, LDH after 24 hours; read-out: average EC50 (±SD), NMDA-induced LDH release
Description: The neuroprotective properties of drugs have been studied in vitro, using neurons cultured from cortex, cerebellum or retina. […] Neurotoxicity is determined in this assay by measuring lactate dehydrogenase (LDH), a method which is simple, accurate and reproducible. We conducted pilot studies to test if poly-lysine-coated plates would be suitable as a matrix upon which to plate fetal neurons, compared to astrocyte-coated plates. We also compared the use of growth medium to neurobasal medium supplemented with B27 in the pilot experiments. The concentrations of NMDA (300-500 μM), glycine (10-50 μM), and memantine (10-100 μM) were varied, and optimum concentrations and times determined from these pilot studies were then chosen for the main study. The assay is described below.
Fetal rat neocortical cells were cultured on a mouse astroglial feeder layer. To obtain mouse astroglial cells for the feeder layer, cortices were harvested from 1-day old Swiss Webster mice (Charles River, Hollister, Calif.) according to the procedure described by Rose et al (1993). After dissecting cortices in ice-cold dissecting medium, they were minced and incubated in 0.09% trypsin in media stock for 1 hr, followed by resuspension in growth medium containing 10% equine serum and 10% fetal bovine serum. A single-cell suspension was obtained by triturating through fire-bored glass pipettes, and the resulting cell suspension was plated at a density of 0.5-0.75 hemispheres/24-well plate/9.6 ml, with 0.4 ml/well. Plates were incubated in a humidified incubator at 37° C., 5% CO2. Astroglial cells become confluent in about 2-3 weeks, at which time these cultures are ready to be used as feeder layers upon which neuronal cultures can be plated. Neuronal cells were obtained from gestational Sprague-Dawley rats E16-E18, using a similar dissection procedure. Rat embryos were dissected to obtain cortical tissue, which was plated as a single-cell suspension at a density of 1.4 hemispheres/24-well plate/9.6 ml, with 0.4 ml/well. These cells were plated on the existing astroglial feeder layer, and were incubated at 37° C., 5% CO2. After 5 days in culture, cytosine arabinoside (10 μM) was added to the wells to inhibit glial cell proliferation, and after 24 hours, the medium was replaced with fresh growth medium. Cells were fed with fresh growth medium every 2 days, until the experiments were performed. For coating plates with poly-lysine, we used poly-d-lysine hydrobromide (Sigma Cat # P7280) at a concentration of 0.1 mg/ml to coat each well using a minimum volume of 0.2 ml/well. After coating for 5 minutes, the solution was aspirated and wells were rinsed thoroughly with sterile tissue culture grade water. After drying for 2 hours, plates were ready for use. Neuronal cultures were plated onto poly-lysine-coated plates at the same density as above. For the pilot study, some of the cultures were fed with 1:1 ratio of growth medium: neurobasal medium (GIBCO)+B-27 supplement (2%), while the rest of the cultures were fed with growth medium alone (Losi et al., 2006). For the main study, we used astroglial feeder layers to plate the neuronal cultures, and used a mix (1:1) of growth medium with neurobasal medium+B-27 supplement for feeding the cultures.
After 11-14 days in culture, neuronal cells were confluent and experiments were performed. Cells were washed twice using sterile Locke's buffer (154 mM NaCl, 5.6 mM KCl, 2.3 mM CaCl2, 3.6 mM NaHCO3, 5.5 mM D-glucose, 5 mM HEPES, pH 7.4), and then exposed to the various treatment compounds. […] After 15 minutes, cultures were washed twice and incubated overnight in media stock. After 24 hours, supernatants and lysates were collected to measure LDH activity. LDH activity was measured by the reduction of NAD, which was utilized in the stoichiometric conversion of a tetrazolium dye using a kit (Sigma TOX-7). Supernatants were removed from the wells and centrifuged before LDH measurements. The adherent cells were lysed to obtain total LDH. […]

C57/BL6 male mice [4] = test: Pentylenetetrazol (PTZ)-induced seizure/death model; format: in vivo, mouse; details: for # mice with L3 seizure / # mice with L4 seizure / # of deaths within 30 min: 6 mice; for # of deaths within 30 min / PTZ-induced death: PTZ 100 mg/kg; for Time to death: mice that died within 30 min; for PTZ-induced death: 30 min observation
Description: Although the protection against death is the key endpoint, other effects of the compounds on PTZ-induced seizures were also assessed using multiple parameters. For the mice that did die within the 30 minute observation window, the time of death was also compared. […] The seizure occurrence rate, onset time and number of level 3 (L3) seizure (repetitive seizures but the animal can still stand) and level 4 (L4) seizure (repetitive seizures and the animal loses righting) are also analyzed. The MDT compound (30 mg/kg) treated groups show a certain degree of improvement compared to control. No data from MK801 or memantine were included because the seizures occurring under these treatments are totally different from the control or MDT injected groups due to side effects (“high jumping”).

In the case of `CC12CC3CC4C1CC1(N)CC2C(C3)C4(C)C1` [MDT-23, 4-amino-1,6-dimethyl-diamantane], the “inhibition of the peak amplitude of NMDA evoked currents” value (NMDA receptor; 10 μM) is reported as 11.6±4.3%, the “inhibition of the peak amplitude of NMDA evoked currents” value (NMDA receptor; 100 μM) is reported as 22.9±9.3% and the “reversibility of inhibition of NMDA evoked currents upon washout” value (NMDA receptor; washout of the compound) is reported as “not reversible”. For the same compound, the Extension rate (C57/BL6 male mice [1]; 10 mg/kg i.p.) was 1.00, the Mortality rate (C57/BL6 male mice [1]; 10 mg/kg i.p.) was 0.67 and the “# of deaths” value (C57/BL6 male mice [1]; 10 mg/kg i.p.) was 4. The “# of extensions” value (C57/BL6 male mice [1]; 10 mg/kg i.p.) was 6, the Extension rate (C57/BL6 male mice [1]; 30 mg/kg i.p.) was 1.00 and the Mortality rate (C57/BL6 male mice [1]; 30 mg/kg i.p.) was 0.17. For the same compound, the “# of deaths” value (C57/BL6 male mice [1]; 30 mg/kg i.p.) was 1, the “# of extensions” value (C57/BL6 male mice [1]; 30 mg/kg i.p.) was 6 and the MES-induced death (C57/BL6 male mice [1]; 10 and 30 mg/kg i.p., mice) was “dose dependent reduction in MES-induced death”. For the same compound, the “Fall Time” value (C57/BL6 male mice [2]; after, 20 min after 10 mg/kg i.p.) was 42.98 ± 2.82 min, the “Fall Time” value (C57/BL6 male mice [2]; after, 20 min after 30 mg/kg i.p.) was 31.37 ± 3.83 min and the “Fall Time” value (C57/BL6 male mice [2]; before (pre-treatment), 10 mg/kg group) was 28.63 ± 3.10 min. The “Fall Time” value (C57/BL6 male mice [2]; before (pre-treatment), 30 mg/kg group) was 39.77 ± 6.14 min, the “rotarod fall time, pre-treatment vs 20 min after injection” value (C57/BL6 male mice [2]; high dose 30 mg/kg i.p., paired t-test) was “loss of performance” and the “rotarod performance after dosing vs. control” value (C57/BL6 male mice [2]; high dose 30 mg/kg i.p., unpaired t-test) was “statistically significant decreases in rotarod performance”. For the same compound, the EC50 [3] was 11.1 ± 9.3 µM, the “# L3 per mouse” value (C57/BL6 male mice [4]; 10 mg/kg i.p.) was 4.67 ± 1.65 and the “# L4 per mouse” value (C57/BL6 male mice [4]; 10 mg/kg i.p.) was 1.67 ± 0.49. It also gave an L3 onset time (C57/BL6 male mice [4]; 10 mg/kg i.p.) of 3.00 ± 0.20 min, an L3 seizure rate (C57/BL6 male mice [4]; 10 mg/kg i.p.) of 0.50 and an L4 onset time (C57/BL6 male mice [4]; 10 mg/kg i.p.) of 13.80 ± 4.40 min. For the same compound, the L4 seizure rate (C57/BL6 male mice [4]; 10 mg/kg i.p.) was 1.00, the Mortality rate (C57/BL6 male mice [4]; 10 mg/kg i.p.) was 0.50 and the “# mice with L3 seizure” value (C57/BL6 male mice [4]; 10 mg/kg i.p.) was 3. The “# mice with L4 seizure” value (C57/BL6 male mice [4]; 10 mg/kg i.p.) was 6, the “# of deaths within 30 min” value (C57/BL6 male mice [4]; 10 mg/kg i.p.) was 3 and the Time to death (C57/BL6 male mice [4]; 10 mg/kg i.p.) was 14.00 ± 6.60 min. For the same compound, the “# L3 per mouse” value (C57/BL6 male mice [4]; 30 mg/kg i.p.) was 3.83 ± 2.44, the “# L4 per mouse” value (C57/BL6 male mice [4]; 30 mg/kg i.p.) was 1.00 ± 0.0 and the L3 onset time (C57/BL6 male mice [4]; 30 mg/kg i.p.) was 5.00 ± 1.90 min. It also gave an L3 seizure rate (C57/BL6 male mice [4]; 30 mg/kg i.p.) of 1.00, an L4 onset time (C57/BL6 male mice [4]; 30 mg/kg i.p.) of 19.80 ± 4.20 min and an L4 seizure rate (C57/BL6 male mice [4]; 30 mg/kg i.p.) of 1.00. For the same compound, the Mortality rate (C57/BL6 male mice [4]; 30 mg/kg i.p.) was 1.00, the “average time of death” value (C57/BL6 male mice [4]; 30 mg/kg i.p., mice that died within 30 minute window) was 22 ± 2.9 min and the “# mice with L3 seizure” value (C57/BL6 male mice [4]; 30 mg/kg i.p.) was 6. For the same compound, the “# mice with L4 seizure” value (C57/BL6 male mice [4]; 30 mg/kg i.p.) was 6, the “# of deaths within 30 min” value (C57/BL6 male mice [4]; 30 mg/kg i.p.) was 6 and the Time to death (C57/BL6 male mice [4]; 30 mg/kg i.p.) was 22.00 ± 2.90 min. The PTZ-induced death (C57/BL6 male mice [4]; 10 and 30 mg/kg i.p.) was “a certain reduction in PTZ-induced death” and the PTZ-induced death (C57/BL6 male mice [4]; high dose 30 mg/kg i.p.) was “died within 30 minutes”.
